Data on 8 molecules can be found in BindingDB's records for doi:10.1016/j.bmc.2012.05.068 (Duquesne University, 2012).

Test [1] deals with Dihydroorotate dehydrogenase (quinone), mitochondrial (Homo sapiens, UniProt Q02127). As to the kind of experiment: Inhibition of human DHODH.
The target in test [2] is T1, Bifunctional dihydrofolate reductase-thymidylate synthase (Toxoplasma gondii, UniProt Q07422).
T1 sequence (Q07422 whole entry): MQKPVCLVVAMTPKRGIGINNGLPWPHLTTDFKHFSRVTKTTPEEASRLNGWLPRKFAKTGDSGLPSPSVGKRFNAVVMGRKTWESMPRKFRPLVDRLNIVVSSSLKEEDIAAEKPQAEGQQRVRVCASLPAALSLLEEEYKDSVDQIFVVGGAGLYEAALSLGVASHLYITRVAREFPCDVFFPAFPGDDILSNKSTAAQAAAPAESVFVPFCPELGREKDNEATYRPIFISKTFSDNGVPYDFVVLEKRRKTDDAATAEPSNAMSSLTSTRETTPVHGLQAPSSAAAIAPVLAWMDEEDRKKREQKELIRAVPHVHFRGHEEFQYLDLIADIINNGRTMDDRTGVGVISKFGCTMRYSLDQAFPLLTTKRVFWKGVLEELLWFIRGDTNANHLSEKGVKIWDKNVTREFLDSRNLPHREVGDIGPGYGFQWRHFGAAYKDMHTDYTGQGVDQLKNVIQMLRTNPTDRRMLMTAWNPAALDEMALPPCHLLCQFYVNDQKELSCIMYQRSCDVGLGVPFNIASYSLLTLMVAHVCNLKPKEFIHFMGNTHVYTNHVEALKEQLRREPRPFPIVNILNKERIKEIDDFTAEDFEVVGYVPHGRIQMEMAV
In words: Inhibition of Toxoplasma gondii thymidylate synthase.

The target of test [3] is T1, Bifunctional dihydrofolate reductase-thymidylate synthase. As to the kind of experiment: Inhibition of Toxoplasma gondii DHFR.
The next test deals with Thymidylate synthase (Homo sapiens, UniProt P04818). As to the kind of experiment: Inhibition of human thymidylate synthase.
Thymidylate synthase, sequence (P04818 whole entry): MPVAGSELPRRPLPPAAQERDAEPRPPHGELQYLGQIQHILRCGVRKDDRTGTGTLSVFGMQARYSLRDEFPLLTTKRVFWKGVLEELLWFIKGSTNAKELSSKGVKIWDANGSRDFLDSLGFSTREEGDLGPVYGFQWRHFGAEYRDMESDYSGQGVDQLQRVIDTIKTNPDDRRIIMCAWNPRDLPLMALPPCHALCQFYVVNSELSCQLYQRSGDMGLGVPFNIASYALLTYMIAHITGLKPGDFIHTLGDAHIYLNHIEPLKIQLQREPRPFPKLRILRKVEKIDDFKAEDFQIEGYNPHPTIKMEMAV

Structures are written as SMILES.

Dihydroorotate dehydrogenase (quinone), mitochondrial, sequence (Q02127 whole entry): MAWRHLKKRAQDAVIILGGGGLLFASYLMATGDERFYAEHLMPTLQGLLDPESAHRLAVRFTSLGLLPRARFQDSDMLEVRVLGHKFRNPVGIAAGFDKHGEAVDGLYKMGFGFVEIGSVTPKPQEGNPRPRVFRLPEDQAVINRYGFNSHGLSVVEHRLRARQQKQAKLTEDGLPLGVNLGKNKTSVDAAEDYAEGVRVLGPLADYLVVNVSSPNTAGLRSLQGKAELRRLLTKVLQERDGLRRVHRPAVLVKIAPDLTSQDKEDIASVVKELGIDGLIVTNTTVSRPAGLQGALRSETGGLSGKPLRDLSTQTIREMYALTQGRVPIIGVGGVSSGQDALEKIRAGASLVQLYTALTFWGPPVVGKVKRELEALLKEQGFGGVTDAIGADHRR

The IC50 is the midpoint of a concentration-inhibition curve. Higher therefore signals weaker potency. On to `Nc1nc2cc3ccccc3c-2c(Nc2ccc(Cl)cc2)[nH]1`, for which the IC50 in test [1] was > 200 µM; in test [2], > 14 µM; in test [3], > 16 µM; on Thymidylate synthase, > 14 µM.

For `Nc1nc2cc3ccccc3c-2c(Nc2ccc(F)c(Cl)c2)[nH]1`, the IC50 in test [2] was > 13 µM; in test [3] it was > 16 µM; at Thymidylate synthase, > 13 µM.

Consider `COc1cccc(Nc2[nH]c(N)nc3cc4ccccc4c2-3)c1`, for which, in test [1], the IC50 was > 200 µM.

In the case of `Nc1nc2cc3ccccc3c-2c(Nc2cccc(Br)c2)[nH]1`, the IC50 in test [1] was > 200 µM; in test [3], > 14 µM.

Regarding `Nc1nc2cc3ccccc3c-2c(Nc2ccc(Cl)cc2F)[nH]1`, the IC50 is > 200 µM in test [1], > 13 µM in test [2], > 16 µM in test [3] and > 13 µM on Thymidylate synthase.

Consider `Nc1nc2cc3ccccc3c-2c(Nc2cccc(F)c2)[nH]1`, for which the IC50 in test [1] is > 200 µM.

In the case of `CC(C)c1ccc(Nc2[nH]c(N)nc3cc4ccccc4c2-3)cc1`, the IC50 in test [2] is > 14 µM; in test [3] it was > 16 µM; against Thymidylate synthase, > 14 µM.

With `Nc1nc2cc3ccccc3c-2c(Nc2ccccc2)[nH]1`, the IC50 in test [1] was > 200 µM.
